Experimental data reported in patent publication US12083109B2, “Neurokinin antagonists and uses thereof” (California Institute of Technology, priority 2017, dated 2024).

Key:
[1] = target: T1, Nk3R (Mus musculus, UniProt P47937); experiment: Tone fear conditioning test (freezing to conditioned tone), osanetant; assay type: in vivo; set-up: from tissue; host or cells: Living mice (wild-type C57Bl6/N males, Charles River); conditions: for SIS-induced persistent (post) freezing to fear-conditioned tone: SIS mice; for acute (and thereby persistent) freezing to conditioned threatening stimulus (tone): osanetant injection into CeA; for SIS-induced persistent freezing to conditioned tone: osanetant microinfusion into dBNSTa, 375 ng per site, 20 min before test
T1 sequence (P47937 1-452): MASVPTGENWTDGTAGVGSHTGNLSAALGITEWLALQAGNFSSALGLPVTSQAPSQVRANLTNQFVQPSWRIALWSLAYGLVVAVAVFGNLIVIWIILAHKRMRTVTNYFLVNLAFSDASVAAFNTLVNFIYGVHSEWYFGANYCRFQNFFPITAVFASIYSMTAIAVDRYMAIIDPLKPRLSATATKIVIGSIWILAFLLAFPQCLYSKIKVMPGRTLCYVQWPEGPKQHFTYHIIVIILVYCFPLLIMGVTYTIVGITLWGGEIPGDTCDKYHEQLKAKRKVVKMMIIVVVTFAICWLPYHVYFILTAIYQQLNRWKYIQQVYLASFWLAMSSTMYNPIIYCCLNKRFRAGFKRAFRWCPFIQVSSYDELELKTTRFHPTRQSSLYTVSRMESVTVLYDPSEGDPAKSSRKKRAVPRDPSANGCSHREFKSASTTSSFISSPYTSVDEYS
Experimental: The protocol for tone trace fear conditioning was performed as previously described (Cushman et al., 2014; incorporated by reference in its entirety) using fear conditioning boxes previously described in detail (Haubensak et al., 2010; Kunwar et al., 2015; incorporated by reference in their entirety). Briefly, mice were transported in squads of four on a white cart to a novel behavioral testing room containing 4 sound-attenuating fear-conditioning chambers (Med Associates). This “training context” was comprised of flat grid flooring (wired to a shock generator and scrambler for footshock delivery, Med Associates), houselights, and the presence of an internal fan for background noise. Chambers were sprayed with 70% Simple Green solution on the underlying chamber pan to generate a unique contextual scent and chambers were cleaned with 70% EtOH between squads. Trace fear conditioning consisted of a 3 minute baseline period followed by 3 tone-shock trials consisting of a 20 second tone conditional stimulus (CS; 75 dB, 2800 Hz), a 20 second trace interval and a 2 second footshock unconditional stimulus (US; 0.7 mA). The inter-trial interval (ITI) between trials was 60 seconds. Mice remained in the chambers an additional 60 seconds before being transported back to the vivarium. The following day, mice were transported in fresh cardboard boxes to a novel behavioral testing room consisting of 4 distinct fear-conditioning boxes to test for tone fear. The “test context” consisted of the houselights and fan turned off, uneven grid flooring, a 1% acetic acid scent and a black plastic insert used to generate a triangular roof. Testing was performed identical to training with the exception that shocks were omitted from test trials to allow for behavior assessment to the tone. A single shock was administered in the last minute of testing to assess activity burst responding to the shock. This allowed assessment of reactivity to the shock under our various manipulations performed during testing without disrupting fear acquisition by performing manipulations during training. All experimental manipulations and data shown herein were performed during the test phase of fear conditioning (training data not shown). Training and testing context were counterbalanced across mice. Freezing behavior during the baseline period as well as during each tone presentation (“during”) and trace interval (“post”) were assessed as previously described (Zelikowsky et al., 2014; incorporated by reference in its entirety) using automated near-infrared video tracking equipment and computer software (VideoFreeze, Med Associates). Shock reactivity (motion, arbitrary units) was measured during the 2 second shock US as well as the 3 seconds immediately following.
(§1) Mice were administered the Nk3R antagonist osanetant (Axon Medchem, Axon 1533) either systemically or intra-brain region. Osanctant was dissolved in saline with 0.1% Tween 20 (vehicle). For systemic administration mice received an intraperitoneal (i.p.) injection (5 mg/kg) 20 minutes prior to behavioral testing. For microinfusions, guide cannulas were removed from mice and replaced with injector cannulas (Plastics One), which protruded 0.5 mm from the tip of the guide cannula. Injectors were attached to 5 μl Hamilton syringes with PE tubing (Plastics One) and mounted on a microinfusion pump (Harvard Apparatus) for controlled infusion of osanetant (0.3 μl vehicle with 375 ng dose per site injected over 6 minutes). For experiments using systemic administration of clozapine-N-oxide (CNO), CNO (Enzo Life Sciences-Biomol, BML-NS105-0005) was dissolved in saline (9 g/L NaCl) and injected (i.p.) at 5 mg/kg for hM4DREADD silencing or 2 mg/kg for hM3DREADD activation 20 minutes prior to behavioral testing. CNO was also administered chronically in drinking water (0.5 mg CNO/100 ml water).

[2] = target: T2, hM3DREADD in Tac2+ neurons (Homo sapiens, UniProt P20309, A239G/Y149C); experiment: Behavioral assays in group housed Tac2-Cre mice, CNO activation (hM3DREADD) with or without Tac2 cDNA; assay type: in vivo, mouse
T2 construct: host or cells: Tac2+ neurons of group-housed Tac2-Cre mice, transduced in vivo by intravenous AAV-PHP.B-hSyn-DIO-hM3D-mCherry, with or without the Tac2 cDNA virus
T2 sequence (P20309 whole entry Y149C/A239G): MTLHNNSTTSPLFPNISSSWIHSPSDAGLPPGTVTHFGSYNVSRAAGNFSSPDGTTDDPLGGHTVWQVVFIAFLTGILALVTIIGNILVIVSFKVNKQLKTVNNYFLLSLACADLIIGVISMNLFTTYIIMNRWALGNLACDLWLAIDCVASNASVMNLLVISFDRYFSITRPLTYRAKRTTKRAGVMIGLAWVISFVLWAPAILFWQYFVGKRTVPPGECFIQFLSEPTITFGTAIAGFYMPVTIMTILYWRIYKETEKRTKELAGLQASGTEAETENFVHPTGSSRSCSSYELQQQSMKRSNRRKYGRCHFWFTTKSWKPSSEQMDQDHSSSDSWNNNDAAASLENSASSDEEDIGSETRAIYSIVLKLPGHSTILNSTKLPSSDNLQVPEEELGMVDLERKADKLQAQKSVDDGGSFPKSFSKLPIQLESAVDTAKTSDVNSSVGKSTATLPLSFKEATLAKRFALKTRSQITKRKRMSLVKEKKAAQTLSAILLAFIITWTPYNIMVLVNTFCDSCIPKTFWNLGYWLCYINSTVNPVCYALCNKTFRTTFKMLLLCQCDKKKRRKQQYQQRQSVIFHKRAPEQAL
Experimental: The AAV-hSyn-DIO-Tac2-P2A-mCherry, AAV-hSyn-DIO-hM3D-mCherry, and AAV-hSyn-DIO-mCherry recombinant AAV genomes were separately packaged into the AAV-PHP.B capsid by triple transfection of HEK293T cells and purified with iodixanol step gradients as previously described (Deverman et al., 2016; incorporated by reference in its entirety). 5×10^11 vector genomes (vg) of each virus were administered intravenously (via the retro-orbital sinus) to Tac2-Cre animals individually or in combination. To equalize the amount of virus given to each mouse, 5×10^11 vg of AAV-PHP.B-hSyn-DIO-mCherry was administered to each animal to bring the amount of virus up to the amount injected in the double Tac2^+ hM3DREAAD group. Each animal received a total vector dose of 1×10^12 vg.
as §1
These viruses were intravenously injected (individually or in combination) into GH Tac2-Cre mice (FIGS. 14A-T). […]

Row | SMILES | SIS-induced persistent (post) freezing to fear-conditioned tone ([1]; osanetant 5 mg/kg i.p. 20 min before test) | SIS-induced persistent (post) freezing to fear-conditioned tone ([1]; osanetant 5 mg/kg i.p. 20 min before test, listed as Osanetant) | freezing during presentation of conditioned tone (acute) ([1]; osanetant 5 mg/kg i.p. 20 min before test, between groups) | acute (and thereby persistent) freezing to conditioned threatening stimulus (tone) [1] | acute (and thereby persistent) freezing to conditioned threatening stimulus (tone) ([1]; listed as Osanetant) | persistent responses to conditioned tone ([1]; osanetant microinfusion into DMH) | SIS-induced persistent freezing to conditioned tone [1] | SIS-induced persistent freezing to conditioned tone ([1]; listed as Osanetant) | SIS-like behavioral effects (increased aggression, persistent freezing to threats) ([2]; group housed Tac2-Cre mice, Tac2 cDNA plus hM3DREADD viruses, CNO in drinking water 2 weeks and 2 mg/kg i.p. before test) | SIS-like behavioral effects ([2]; group housed Tac2-Cre mice, activation of Tac2+ neurons on its own (hM3DREADD, CNO)) | SIS-like behavioral effects ([2]; group housed control mice, mCherry-only virus, treated with CNO)
1 | CC(=O)N(C)C1(c2ccccc2)CCN(CCC[C@]2(c3ccc(Cl)c(Cl)c3)CCCN(C(=O)c3ccccc3)C2)CC1 [osanetant, N-(1-{3-[(3R)-1-benzoyl-3-(3,4-dichlorophenyl)piperidin-3-yl]propyl}-4-phenylpiperidin-4-yl)-N-methylacetamide] | blocked | attenuated | no significant differences | reduced | selectively blocked | had no effect | selectively inhibited | selectively blocked |  |  | 
2 | C[N+]1([O-])CCN(C2=Nc3cc(Cl)ccc3Nc3ccccc32)CC1 [CNO, clozapine-N-oxide] |  |  |  |  |  |  |  |  | recapitulated key behavioral effects of SIS | insufficient | No such effects
